Assay results reported in patent US9993494B2, “Compositions and methods for treating fibrotic disease” (eFFECTOR Therapeutics, Inc., priority 2014, dated 2018).

System: normal human lung fibroblasts
Assay: Ribosomal profiling: translational efficiency in TGFβ-treated fibroblasts
Assay type: cell-based
Conditions: TGFβ-treated fibroblasts
Experimental: Ribosomal profiling allows for measurement of changes in transcription and translation on a genome-wide basis accompanying TGFβ-dependent transformation of fibroblasts to myofibroblasts. Ribosomal profiles of the TGFβ-treated fibroblasts from Example 1 (about 6×10^6 cells/10 cm plate) were prepared and analyzed for changes in translational efficiencies with respect to potential disease-associated cellular changes accompanying this TGFβ-induced transformation.
Briefly, cells were washed with cold PBS supplemented with cycloheximide and lysed with 1× mammalian cell lysis buffer for 10 minutes on ice. Lysates were clarified by centrifugation for 10 minutes at 14,000 rpm and supernatants were collected. Cell lysates were processed to generate ribosomal protected fragments and total mRNA according to the instructions included with the ARTseq Ribosome Profiling Kit (Illumina, San Diego, Calif.). Sequencing of total RNA (RNA) and of ribosome-protected fragments of RNA (RPF) was carried out using RNA-Seq methodology according to the manufacturer's instructions (Illumina). To analyze the ribosomal profiles, RNA-Seq reads were processed with tools from the FASTX-Toolkit (fastq_quality_trimmer, fastx_clipper and fastx_trimmer). Unprocessed and processed reads were evaluated for a variety of quality measures using FastQC, and processed reads were mapped to the human genome using TopHat (see, e.g., Trapnell et al., Bioinformatics 25:1105, 2009). Gene-by-gene assessment of the number of fragments strictly and uniquely mapping to the coding region of each gene was conducted using HTSeq-count, a component of the HTSeq package. […] Genes with low counts in either RPF or RNA were excluded from differential analyses. Pathway and network analyses of differential data were conducted using Ingenuity Pathway Analysis (IPA).

CC(C)n1nc(-c2cc3cc(O)ccc3[nH]2)c2c(N)ncnc21 [PP242]
renormalizing the translational profile of COX7C (ENSG00000127184): − (− = <0.9) | renormalizing the translational profile of LIF (ENSG00000128342): − (− = <0.9) | renormalizing the translational profile of MTUS1 (ENSG00000129422): + (+ = 0.9 to 1.5) | renormalizing the translational profile of ARHGEF6 (ENSG00000129675): − (− = <0.9) | renormalizing the translational profile of RPL36 (ENSG00000130255): − (− = <0.9) | renormalizing the translational profile of GDF15 (ENSG00000130513): − (− = <0.9) | renormalizing the translational profile of ASS1 (ENSG00000130707): − (− = <0.9) | renormalizing the translational profile of EIF2S3 (ENSG00000130741): − (− = <0.9) | renormalizing the translational profile of RPL27 (ENSG00000131469): − (− = <0.9) | renormalizing the translational profile of MATN3 (ENSG00000132031): − (− = <0.9) | renormalizing the translational profile of PPARG (ENSG00000132170): − (− = <0.9) | renormalizing the translational profile of RARRES3 (ENSG00000133321): − (− = <0.9) | renormalizing the translational profile of BIVM (ENSG00000134897): + (+ = 0.9 to 1.5) | renormalizing the translational profile of ATP5G2 (ENSG00000135390): + (+ = 0.9 to 1.5) | renormalizing the translational profile of KRT7 (ENSG00000135480): − (− = <0.9) | renormalizing the translational profile of HNRNPA1 (ENSG00000135486): + (+ = 0.9 to 1.5) | renormalizing the translational profile of IL6 (ENSG00000136244): − (− = <0.9) | renormalizing the translational profile of RPL35 (ENSG00000136942): − (− = <0.9) | renormalizing the translational profile of NOV (ENSG00000136999): − (− = <0.9) | renormalizing the translational profile of IER3 (ENSG00000137331): − (− = <0.9) | renormalizing the translational profile of DDX60 (ENSG00000137628): − (− = <0.9) | renormalizing the translational profile of RPLP1 (ENSG00000137818): − (− = <0.9) | renormalizing the translational profile of PAQR5 (ENSG00000137819): − (− = <0.9) | renormalizing the translational profile of AOX1 (ENSG00000138356): − (− = <0.9) | renormalizing the translational profile of FGF5 (ENSG00000138675): ++ (++ = 1.5 to 2.0) | renormalizing the translational profile of PDE5A (ENSG00000138735): − (− = <0.9) | renormalizing the translational profile of GAS2L3 (ENSG00000139354): − (− = <0.9) | renormalizing the translational profile of DIAPH3 (ENSG00000139734): − (− = <0.9) | renormalizing the translational profile of MYO19 (ENSG00000141140): − (− = <0.9) | renormalizing the translational profile of RPL13A (ENSG00000142541): − (− = <0.9) | renormalizing the translational profile of RPL11 (ENSG00000142676): − (− = <0.9) | renormalizing the translational profile of ACTA1 (ENSG00000143632): − (− = <0.9) | renormalizing the translational profile of PLEKHA6 (ENSG00000143850): − (− = <0.9) | renormalizing the translational profile of RPL32 (ENSG00000144713): − (− = <0.9) | renormalizing the translational profile of RPL37 (ENSG00000145592): − (− = <0.9) | renormalizing the translational profile of BTF3 (ENSG00000145741): − (− = <0.9) | renormalizing the translational profile of HIGD2A (ENSG00000146066): + (+ = 0.9 to 1.5) | renormalizing the translational profile of CREB5 (ENSG00000146592): − (− = <0.9) | renormalizing the translational profile of DENND2A (ENSG00000146966): − (− = <0.9) | renormalizing the translational profile of RPL10 (ENSG00000147403): − (− = <0.9) | renormalizing the translational profile of EIF3H (ENSG00000147677): − (− = <0.9) | renormalizing the translational profile of RPL7A (ENSG00000148303): − (− = <0.9) | renormalizing the translational profile of EIF3M (ENSG00000149100): − (− = <0.9) | renormalizing the translational profile of JPH2 (ENSG00000149596): − (− = <0.9) | renormalizing the translational profile of FAU (ENSG00000149806): − (− = <0.9) | renormalizing the translational profile of CCDC102B (ENSG00000150636): − (− = <0.9) | renormalizing the translational profile of FRMD4A (ENSG00000151474): − (− = <0.9) | renormalizing the translational profile of HOMER1 (ENSG00000152413): − (− = <0.9) | renormalizing the translational profile of PLEKHH2 (ENSG00000152527): − (− = <0.9) | renormalizing the translational profile of ANKH (ENSG00000154122): − (− = <0.9) | renormalizing the translational profile of ABCA6 (ENSG00000154262): − (− = <0.9) | renormalizing the translational profile of OBSCN (ENSG00000154358): − (− = <0.9) | renormalizing the translational profile of ADAMTS5 (ENSG00000154736): − (− = <0.9) | renormalizing the translational profile of OXA1L (ENSG00000155463): − (− = <0.9) | renormalizing the translational profile of C9orf85 (ENSG00000155621): + (+ = 0.9 to 1.5) | renormalizing the translational profile of RPL30 (ENSG00000156482): − (− = <0.9) | renormalizing the translational profile of EEF1A1 (ENSG00000156508): + (+ = 0.9 to 1.5) | renormalizing the translational profile of NRG1 (ENSG00000157168): − (− = <0.9) | renormalizing the translational profile of ADAMTS4 (ENSG00000158859): − (− = <0.9) | renormalizing the translational profile of RPL8 (ENSG00000161016): − (− = <0.9) | renormalizing the translational profile of RPL26 (ENSG00000161970): − (− = <0.9) | renormalizing the translational profile of RPL29 (ENSG00000162244): − (− = <0.9) | renormalizing the translational profile of CAMK2N1 (ENSG00000162545): − (− = <0.9) | renormalizing the translational profile of IGFBP7 (ENSG00000163453): − (− = <0.9) | renormalizing the translational profile of RPL22L1 (ENSG00000163584): − (− = <0.9) | renormalizing the translational profile of RPL9 (ENSG00000163682): − (− = <0.9)
